Legend:
DPPIV = DPPIV (Homo sapiens, UniProt P27487); settings: reversible DPPIV inhibitor; cited from earlier work
seprase = biological target: T1, seprase (Homo sapiens, UniProt Q12884); settings: cited from earlier work
T1 sequence (Q12884 1-760): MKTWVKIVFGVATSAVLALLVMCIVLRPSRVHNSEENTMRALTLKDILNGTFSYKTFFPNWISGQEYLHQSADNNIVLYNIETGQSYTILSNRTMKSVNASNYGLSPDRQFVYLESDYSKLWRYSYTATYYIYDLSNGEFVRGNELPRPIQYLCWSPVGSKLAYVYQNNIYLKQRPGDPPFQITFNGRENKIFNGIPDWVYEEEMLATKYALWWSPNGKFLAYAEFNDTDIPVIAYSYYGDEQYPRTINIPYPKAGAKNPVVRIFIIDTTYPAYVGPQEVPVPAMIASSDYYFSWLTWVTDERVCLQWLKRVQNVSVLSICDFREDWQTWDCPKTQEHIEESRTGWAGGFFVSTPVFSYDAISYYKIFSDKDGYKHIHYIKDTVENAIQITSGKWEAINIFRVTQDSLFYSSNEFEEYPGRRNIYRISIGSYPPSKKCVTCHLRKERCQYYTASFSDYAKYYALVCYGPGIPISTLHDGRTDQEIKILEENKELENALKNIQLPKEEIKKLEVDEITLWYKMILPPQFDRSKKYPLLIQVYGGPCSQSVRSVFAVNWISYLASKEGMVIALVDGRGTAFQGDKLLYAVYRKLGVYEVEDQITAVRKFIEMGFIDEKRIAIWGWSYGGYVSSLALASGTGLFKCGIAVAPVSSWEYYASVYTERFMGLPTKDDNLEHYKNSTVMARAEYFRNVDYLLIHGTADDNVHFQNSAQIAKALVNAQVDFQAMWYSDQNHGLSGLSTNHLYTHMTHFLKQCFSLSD

seprase-DPPIV complex = biological target: T2, seprase-DPPIV complex (Homo sapiens, UniProt P27487+Q12884); test: collagen-degrading activity: peptide release from biotinylated type I collagen gel; type: biochemical; settings: 37° C., 8 h; mAb 5 μg/ml, AEBSF 20 μM, CG1847 50 nM
T2 construct: The seprase-DPPIV complex was isolated from WI38 RIPA extracts using mAbs D28; endogenous in cells; host or cells: WI38 human fibroblasts (RIPA extract, immuno-isolated on mAb D28 or E3 beads)
T2 sequence (P27487 whole entry, one chain of several): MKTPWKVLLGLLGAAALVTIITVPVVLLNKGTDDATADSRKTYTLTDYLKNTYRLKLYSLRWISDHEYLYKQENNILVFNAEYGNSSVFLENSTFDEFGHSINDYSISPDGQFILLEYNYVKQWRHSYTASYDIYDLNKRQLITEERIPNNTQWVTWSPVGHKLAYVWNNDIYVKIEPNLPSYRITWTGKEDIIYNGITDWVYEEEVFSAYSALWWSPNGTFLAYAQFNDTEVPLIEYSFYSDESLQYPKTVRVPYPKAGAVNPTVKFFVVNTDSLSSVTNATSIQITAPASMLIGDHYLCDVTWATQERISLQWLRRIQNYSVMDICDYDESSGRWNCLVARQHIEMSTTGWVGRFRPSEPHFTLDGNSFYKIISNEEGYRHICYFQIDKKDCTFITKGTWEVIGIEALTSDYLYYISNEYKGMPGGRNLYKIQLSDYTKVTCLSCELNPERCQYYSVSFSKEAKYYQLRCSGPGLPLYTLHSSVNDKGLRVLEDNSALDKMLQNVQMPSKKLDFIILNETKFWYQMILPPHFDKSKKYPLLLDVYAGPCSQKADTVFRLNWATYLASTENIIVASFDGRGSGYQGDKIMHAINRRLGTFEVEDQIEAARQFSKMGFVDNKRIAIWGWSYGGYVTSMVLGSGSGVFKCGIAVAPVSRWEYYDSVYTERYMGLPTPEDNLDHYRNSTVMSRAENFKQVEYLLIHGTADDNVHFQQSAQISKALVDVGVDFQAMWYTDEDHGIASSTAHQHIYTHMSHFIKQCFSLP
Description: FIG. 9. Collagen-degrading activity of the seprase-DPPIV complex. Collagen-degrading activities of the protease complex and purified DPPIV were determined by the release of peptide fragments from biotinylated type I collagen gel in the presence of these enzymes. The seprase-DPPIV complex was isolated from WI38 RIPA extracts using mAbs D28 (lane marked Ip Seprase) and E3 (lane marked Ip DPPIV) beads, seprase from LOX WGA fraction using mAb D28 (lane marked Ip Seprase*), MMP-2 from media conditioned by MMP-2 COS cell transfectants (lane marked MMP-2), and proteins associated with β3 integrin were from WI38 RIPA extracts using HB242 (lane marked Ip β3 integrin). All enzymes, including the protease complex, purified seprase, MMP-2, and proteins associated with β1 or β3 integrin were applied at the concentration of 50 ng/ml. […]
Collagen-degrading activity of isolated DPPIV or seprase-DPPIV complex was determined by the release of peptide fragments from biotinylated type I collagen gel by immuno-isolated proteases or the protease complex. […]

Chain of DPPIV (P27487 whole entry, species assumed): as the sequence (P27487 whole entry, one chain of several) above

## NC(CCC(=O)NOC(=O)c1ccccc1)C(=O)N1CCCC1 (stereo not shown) [H-Glu(NHO-Bz)-Pyrr]
DPPIV
  Ki: 500 nM

## CCN1C(=O)C=CC1=O [NEM]
seprase
  inhibition of seprase activity: inhibited

## NCCc1ccc(S(=O)(=O)F)cc1 [AEBSF]
seprase-DPPIV complex
  degradation of collagen by the seprase-DPPIV complex: blocked
seprase
  seprase gelatinase activity: completely blocked

## N=C(N)c1ccc(CS(=O)(=O)F)cc1 [APSF]
seprase
  seprase gelatinase activity: completely blocked

## O=S(=O)(F)Cc1ccccc1 [PMSF]
seprase
  inhibition of seprase activity: inhibits
  seprase gelatinase activity: completely blocked
